Measured values reported in US20050233405A1, “Inhibitors of caspase-3-mediated cleavage of essential ventricular myosin light chain” (ProCorde GmbH, priority 2002, published 2005).
*: point of attachment. pNA = O=[N+]([O-])c1ccc(N*)cc1; AMC = Cc1cc(=O)oc2cc(N*)ccc12

Legend:
caspase-3 = target: T1, caspase-3 (Homo sapiens, UniProt P42574); conditions: chromogenic peptide substrates; J Biol Chem. 1997 Apr 11; 272(15):9677-82; cited from earlier work
T1 sequence (P42574 29-175 limits assumed): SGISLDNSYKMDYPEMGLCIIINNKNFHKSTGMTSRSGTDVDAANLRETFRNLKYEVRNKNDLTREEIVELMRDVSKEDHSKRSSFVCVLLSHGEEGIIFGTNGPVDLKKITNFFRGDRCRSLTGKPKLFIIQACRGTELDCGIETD
T1 sequence (P42574 176-277 limits assumed): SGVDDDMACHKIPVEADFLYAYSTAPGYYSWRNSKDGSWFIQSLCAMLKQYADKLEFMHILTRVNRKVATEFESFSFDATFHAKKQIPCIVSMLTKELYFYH

[1] = target: T2, recombinant human caspase-3 (CPP32) (Homo sapiens, UniProt P42574); experiment: Fluorimetric peptide substrate cleavage assay, caspase-3; assay type: biochemical; conditions: fluorimetric in vitro assay
T2 construct: purified, active recombinant human caspase-3 (CPP32); purchased BD Biosciences Pharmingen, Heidelberg, Germany
T2 sequence (P42574 29-175 limits assumed): T1 sequence (P42574 29-175 limits assumed)
T2 sequence (P42574 176-277 limits assumed): T1 sequence (P42574 176-277 limits assumed)
Experimental: The rate of caspase-3 enzyme activity could be measured by enzymatic cleavage and release of AMC from the Ac-DEVD-AMC caspase substrate (Biosyntan, Berlin, Germany). This parameter was measured as emission at 460 nm upon excitation at 380 nm using U.V. spectrofluorometry.
Ac-DFVE-AMC was synthesized by Biosyntan, Berlin, Germany, with a purity of 93.5%. The peptide lyophilised as trifluoracetic acid salt was reconstituted in DMSO to 100 mM. 5 μg of purified, active recombinant human caspase-3 (CPP32) from BD Biosciences Pharmingen, Heidelberg, Germany, were diluted in 100 μl 50 mM Tris, pH 8.0, with 100 mM NaCl, 50 mM imidazole.
The reaction buffer contained 20 mM HEPES, 100 mM NaCl, 10 mM DTT, 1 mM EDTA, 0.1 % (w/v) CHAPS, 10% sucrose, pH 7.2 and the indicated concentrations of Ac-DFVE-AMC. Caspase-3 was added to reaction mixture at a final concentration of 3 nM.
After preincubation for 10 min at 37° C., the released fluorogenic AMC was monitored every second minute for 20 min in a spectrofluorometer at an excitation wavelength of 380 nm and an emission wavelength of 460 nm.
Initial velocities and substrate concentrations were fit by non linear regression to the Michaelis-Menten equation. Lineweaver-Burk plots were calculated.

caspase-7 = target: T3, caspase-7 (Homo sapiens, UniProt P55210); experiment: Fluorimetric peptide substrate cleavage assay, caspase-7; assay type: biochemical; conditions: for cleavage of peptide substrate by caspase-7: fluorimetric in vitro assay
T3 sequence (P55210 24-198 limits assumed): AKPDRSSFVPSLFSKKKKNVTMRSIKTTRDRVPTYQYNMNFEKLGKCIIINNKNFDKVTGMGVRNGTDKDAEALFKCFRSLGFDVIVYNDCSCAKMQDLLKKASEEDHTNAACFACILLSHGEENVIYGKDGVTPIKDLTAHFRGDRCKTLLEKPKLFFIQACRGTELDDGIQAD
T3 sequence (P55210 207-303 limits assumed): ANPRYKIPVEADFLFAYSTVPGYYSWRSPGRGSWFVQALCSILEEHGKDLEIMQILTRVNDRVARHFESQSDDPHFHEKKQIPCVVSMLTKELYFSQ
Source text: (§1) FIG. 8: Effect of different proteases—other caspases and calpain—on cleavage of the peptide substrate Ac-DFVE-AMC. The 1/KM-value for caspase-3 was normalized to 1, and 1/KM-values of other caspases/proteases are shown in relation to that value. […] The functional proteolytic activity of all proteases used was confirmed with the typical peptide substrate of each protease.
To this end, fluorimetric in vitro assays using the specific cleavage sites coupled to indicator dyes were established. Caspase-3 and the structurally almost identical caspase-7 (Wei et al., 2000) cleaved both substrates, DEVD and DFVE, with a highly reproducible Michaelis-Menten kinetic. […] We measured a KM-value for DEVD which compared well to existing literature data (Table 1), whereas the KM-value for DFVE was in the range of some other rare substrates of caspase-3 (Table 1). This differential substrate affinity allows to screen for specific inhibitors of vMLC1 cleavage, which would, however, not affect the cleavage of most other known substrates of caspase-3 and 7.
(§2) As p35 inhibits all effector caspases (subtypes 1,3,6,7,8 and 10; e.g., Zhou et al., Biochemistry 1998; 37:10757), our concern was whether the observed beneficial effects of p35 in heart failure were really due to inhibition of caspase-3 and of the structurally almost identical caspase-7. Especially, we sought to exclude that the decrease in vMLC1 cleavage in the presence of p35 was due to predominant inhibition of a different caspase, and to exclude that the cleavage of vMLC1 was induced by caspase-3 only indirectly acting via other effector caspases. Therefore, we tested all these enzymes for their capacity to cleave Ac-DFVE-AMC. […] However, the highly homologous caspase-7 cleaved the new substrate DFVE with almost 1 log scale lower affinity compared to caspase-3.

calpain-I = target: T4, calpain-I (Homo sapiens, UniProt P07384); experiment: Ac-DFVE-AMC cleavage by calpain-I; assay type: biochemical; conditions: physiological substrate concentrations
T4 sequence (P07384 1-714): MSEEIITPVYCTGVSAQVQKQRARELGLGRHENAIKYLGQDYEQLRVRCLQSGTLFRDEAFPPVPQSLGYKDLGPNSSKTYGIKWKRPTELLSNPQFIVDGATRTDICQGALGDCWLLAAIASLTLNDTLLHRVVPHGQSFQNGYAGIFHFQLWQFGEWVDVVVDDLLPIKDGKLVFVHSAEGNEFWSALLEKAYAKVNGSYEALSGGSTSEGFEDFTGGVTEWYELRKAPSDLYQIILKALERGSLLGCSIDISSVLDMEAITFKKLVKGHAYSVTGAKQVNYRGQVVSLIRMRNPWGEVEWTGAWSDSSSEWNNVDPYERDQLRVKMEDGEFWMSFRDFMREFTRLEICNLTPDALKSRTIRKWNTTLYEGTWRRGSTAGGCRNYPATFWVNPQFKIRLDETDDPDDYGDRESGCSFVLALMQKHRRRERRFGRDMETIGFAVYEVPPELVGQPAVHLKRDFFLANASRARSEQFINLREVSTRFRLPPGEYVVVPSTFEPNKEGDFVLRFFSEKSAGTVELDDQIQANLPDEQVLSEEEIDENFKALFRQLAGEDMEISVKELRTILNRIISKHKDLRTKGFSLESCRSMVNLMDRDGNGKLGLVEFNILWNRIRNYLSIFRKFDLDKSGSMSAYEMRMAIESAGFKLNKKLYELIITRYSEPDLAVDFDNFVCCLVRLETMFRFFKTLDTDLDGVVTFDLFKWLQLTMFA
T4 sequence (P04632 1-268 partner): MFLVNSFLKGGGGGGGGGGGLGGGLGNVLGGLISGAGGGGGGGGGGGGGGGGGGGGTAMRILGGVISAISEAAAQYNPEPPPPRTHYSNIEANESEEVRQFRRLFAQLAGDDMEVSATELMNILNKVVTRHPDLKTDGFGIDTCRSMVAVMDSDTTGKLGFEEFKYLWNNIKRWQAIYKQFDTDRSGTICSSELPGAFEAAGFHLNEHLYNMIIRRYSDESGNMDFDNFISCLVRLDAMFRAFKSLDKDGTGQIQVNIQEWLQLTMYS
Source text: as §1, §2

other caspases = experiment: Ac-DFVE-AMC cleavage by other caspases; assay type: biochemical; conditions: physiological substrate concentrations
Source text: as §1, §2

[2] = system: caspase-3 activation in failing myocardium; conditions: rabbit CHF, rapid ventricular pacing; Laugwitz et al., 2001; cited from earlier work

Ac-YEVD-pNA
Km (caspase-3): 370 µM

Ac-DQMD-pNA
Km (caspase-3): 44 µM

Ac-VQVD-pNA
Km (caspase-3): 510 µM

Ac-DEVD-pNA
Km (caspase-3): 11 µM

Ac-DEVD-AMC
cleavage of peptide substrate by caspase-3 [1]: cleaved
cleavage of peptide substrate by caspase-7 (caspase-7): cleaved

Ac-DFVE-{AMC}
cleavage of peptide substrate by caspase-3 [1]: can specifically cleave
cleavage of substrate by calpain-I (calpain-I): no cleavage was detectable
cleavage of substrate by other caspases (other caspases): no cleavage was detectable
cleavage of peptide substrate by caspase-7 (caspase-7): can specifically cleave
affinity of caspase-7 for the substrate, lower compared to caspase-3 (caspase-7; relative to caspase-3): ~1 log scale

Ac-VDVAD-pNA
Km (caspase-3): 67 µM

Ac-VEID-pNA
Km (caspase-3): 250 µM

B1: p35: potent caspase inhibitor p35, given by adenovirus-mediated gene delivery (protein, UniProt P08160 1-299, looked up)
Early 35 kDa protein: MCVIFPVEIDVSQTIIRDCQVDKQTRELVYINKIMNTQLTKPVLMMFNISGPIRSVTRKNNNLRDRIKSKVDEQFDQLERDYSDQMDGFHDSIKYFKDEHYSVSCQNGSVLKSKFAKILKSHDYTDKKSIEAYEKYCLPKLVDERNDYYVAVCVLKPGFENGSNQVLSFEYNPIGNKVIVPFAHEINDTGLYEYDVVAYVDSVQFDGEQFEEFVQSLILPSSFKNSEKVLYYNEASKNKSMIYKALEFTTESSWGKSEKYNWKIFCNGFIYDKKSKVLYVKLHNVTSALNKNVILNTIK
modifications: adenovirus-delivered
effect of in vivo transcoronary gene delivery in failing myocardium [2]: positive impact on sarcomeric organization and contractile performance
